Columns and labels:
[1] = tested on: Tyk2-pSTAT4 (IL-12 induced pSTAT4); assay: IL-12 induced pSTAT4 in human PBMC; type: cell-based; settings: 1.7 ng/mL IL-12, 30 minutes
How it was run: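 pSTAT4 and total STAT4 quantified by MSD in cell lysates after 30 minutes of 1.7 ng/mL IL-12 stimulation. Beforehand, compound (0.1% DMSO final) sat 1 hr at 37 C on 200,000 thawed buffy-coat PBMC per well in serum-containing medium.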

[2] = molecular target: TYK2 (Homo sapiens (Human), UniProt P29597); assay: Tyk2 radioactive kinase assay; type: biochemical; settings: ATP 10 μM
How it was run: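 Recombinant human TYK2 (Invitrogen) was mixed with 20 μM peptide substrate in a buffer of 20 mM Hepes pH 7.5, 10 mM MgCl2, 1 mM EGTA, 0.02% Brij35, 0.02 mg/mL BSA, 0.1 mM […], 2 mM DTT and 1% DMSO, and compounds in DMSO were added. Adding ^33P-ATP (10 μM ATP) started the reaction, which ran 120 min at room temperature. Mixtures were then spotted onto P81 ion-exchange paper, washed thoroughly in 0.75% phosphoric acid, and counted for radioactivity.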

[3] = molecular target: JAK2 (Homo sapiens (Human), UniProt O60674); assay: JAK2 radioactive kinase assay; type: biochemical; settings: ATP 10 μM
How it was run: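 Radiometric assay in Hepes pH 7.5, MgCl2, EGTA, Brij35, BSA, DTT, 1% DMSO, with 10 μM [33P]ATP, 120 min at room temp; P81 paper capture and counting. […]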

[4] = tested on: JAK2-pSTAT5 (GM-CSF induced pSTAT5); assay: GM-CSF induced pSTAT5 in human PBMC; type: cell-based; settings: 5 ng/mL GM-CSF
How it was run: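 Thawed human PBMC, 200,000 per well in serum-containing medium, were preincubated 1 hr at 37 C with compound in 0.1% DMSO. GM-CSF at 5 ng/mL final was added for 20 minutes, then pSTAT5 and total STAT5 in lysates were measured by MSD immunoassay.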

Chain of TYK2 (P29597 whole entry): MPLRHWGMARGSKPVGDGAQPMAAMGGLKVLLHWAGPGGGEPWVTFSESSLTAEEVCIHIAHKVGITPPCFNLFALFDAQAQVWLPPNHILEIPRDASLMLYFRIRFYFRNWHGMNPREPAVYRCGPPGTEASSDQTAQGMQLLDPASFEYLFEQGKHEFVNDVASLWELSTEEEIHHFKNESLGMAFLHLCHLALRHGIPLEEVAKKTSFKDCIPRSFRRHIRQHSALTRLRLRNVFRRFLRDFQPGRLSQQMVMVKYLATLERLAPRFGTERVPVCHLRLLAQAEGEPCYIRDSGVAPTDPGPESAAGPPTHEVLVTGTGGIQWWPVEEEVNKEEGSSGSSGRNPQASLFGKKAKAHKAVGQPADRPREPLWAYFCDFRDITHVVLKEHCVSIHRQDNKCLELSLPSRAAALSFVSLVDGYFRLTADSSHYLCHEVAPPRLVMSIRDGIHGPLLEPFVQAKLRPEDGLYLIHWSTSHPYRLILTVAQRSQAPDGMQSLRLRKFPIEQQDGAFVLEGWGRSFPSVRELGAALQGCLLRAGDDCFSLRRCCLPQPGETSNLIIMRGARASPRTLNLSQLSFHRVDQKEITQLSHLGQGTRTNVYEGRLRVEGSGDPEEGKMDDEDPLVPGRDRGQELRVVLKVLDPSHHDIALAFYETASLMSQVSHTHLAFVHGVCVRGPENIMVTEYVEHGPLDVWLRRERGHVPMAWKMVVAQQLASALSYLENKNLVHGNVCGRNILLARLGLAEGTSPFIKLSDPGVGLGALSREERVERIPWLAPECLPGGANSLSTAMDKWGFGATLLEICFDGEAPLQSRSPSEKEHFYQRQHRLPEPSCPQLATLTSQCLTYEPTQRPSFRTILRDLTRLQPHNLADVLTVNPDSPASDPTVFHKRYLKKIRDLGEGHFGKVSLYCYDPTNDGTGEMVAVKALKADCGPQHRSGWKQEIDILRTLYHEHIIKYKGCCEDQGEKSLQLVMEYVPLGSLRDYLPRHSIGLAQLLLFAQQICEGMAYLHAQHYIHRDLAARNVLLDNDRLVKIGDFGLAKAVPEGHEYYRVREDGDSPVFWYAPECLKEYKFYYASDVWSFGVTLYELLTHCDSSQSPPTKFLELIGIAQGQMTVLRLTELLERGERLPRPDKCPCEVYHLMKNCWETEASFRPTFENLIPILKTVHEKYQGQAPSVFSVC
Chain of JAK2 (O60674 whole entry): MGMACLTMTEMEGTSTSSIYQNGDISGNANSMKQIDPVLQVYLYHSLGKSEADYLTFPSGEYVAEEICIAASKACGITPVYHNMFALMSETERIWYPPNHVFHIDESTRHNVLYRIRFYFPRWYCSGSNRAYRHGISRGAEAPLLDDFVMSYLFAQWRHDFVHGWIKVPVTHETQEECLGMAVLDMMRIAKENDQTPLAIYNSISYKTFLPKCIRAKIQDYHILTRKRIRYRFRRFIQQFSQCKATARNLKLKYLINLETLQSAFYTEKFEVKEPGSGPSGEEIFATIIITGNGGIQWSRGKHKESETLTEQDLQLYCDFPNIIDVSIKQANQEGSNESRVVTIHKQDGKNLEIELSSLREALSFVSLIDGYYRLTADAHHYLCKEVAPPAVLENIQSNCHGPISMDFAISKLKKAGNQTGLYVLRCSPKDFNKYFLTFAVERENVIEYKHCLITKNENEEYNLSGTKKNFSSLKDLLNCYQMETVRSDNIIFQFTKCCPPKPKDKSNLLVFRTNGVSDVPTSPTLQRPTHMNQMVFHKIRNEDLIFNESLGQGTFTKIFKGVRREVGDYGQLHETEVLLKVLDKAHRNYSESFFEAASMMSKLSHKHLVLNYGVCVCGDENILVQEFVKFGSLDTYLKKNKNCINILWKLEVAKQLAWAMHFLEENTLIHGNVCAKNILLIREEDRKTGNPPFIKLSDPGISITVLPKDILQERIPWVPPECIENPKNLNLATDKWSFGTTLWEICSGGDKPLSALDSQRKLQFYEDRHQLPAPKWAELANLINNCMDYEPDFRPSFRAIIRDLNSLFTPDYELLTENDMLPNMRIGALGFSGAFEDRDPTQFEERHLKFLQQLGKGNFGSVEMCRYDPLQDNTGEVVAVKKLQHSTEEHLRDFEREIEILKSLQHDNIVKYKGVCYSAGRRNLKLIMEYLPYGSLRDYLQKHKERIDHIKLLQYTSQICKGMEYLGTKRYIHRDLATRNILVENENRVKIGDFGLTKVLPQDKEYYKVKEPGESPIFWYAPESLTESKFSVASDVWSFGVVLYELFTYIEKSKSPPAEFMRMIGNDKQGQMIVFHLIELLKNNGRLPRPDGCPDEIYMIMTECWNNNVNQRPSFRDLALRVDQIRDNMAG

SMILES	EC50 ([1]; Homo sapiens, PBMC, 0.5 h) [nM]	Ki [2] [nM]	Ki [3] [nM]	EC50 ([4]; Homo sapiens, PBMC, 20 min) [nM]	EC50 [1] [nM]	EC50 ([4]; 20 minutes) [nM]
[2H]C1([2H])CC(O)(C([2H])([2H])[2H])C([2H])([2H])N1c1ccn(-c2cc(-c3c(F)cccc3C#N)nc3c2C(=O)NC3)n1 (centres unmarked) [I-170, 3-fluoro-2-(4-(3-(3-hydroxy-3-(methyl-d3)pyrrolidin-1-yl-2,2,5,5-d4)-1H-pyrazol-1-yl)-5-oxo-6,7-dihydro-5H-pyrrolo[3,4-b]pyridin-2-yl)benzonitrile]	30 to 100	0.1 to 10	0.1 to 10	> 2000		
[2H]C1([2H])NC(=O)c2c(-n3ccc(N4C([2H])([2H])C[C@@](O)(C([2H])([2H])[2H])C4([2H])[2H])n3)cc(-c3c(F)cccc3C#N)nc21 [I-206, (S)-3-fluoro-2-(4-(3-(3-hydroxy-3-(methyl-d3)pyrrolidin-1-yl-2,2,5,5-d4)-1H-pyrazol-1-yl)-5-oxo-6,7-dihydro-5H-pyrrolo[3,4-b]pyridin-2-yl-7,7-d2)benzonitrile]	30 to 100	0.1 to 10	10 to 100	100 to 2000		
CC(=O)N[C@@H]1CCCN(c2ccn(-c3cc(-c4c(F)cccc4C#N)nc4c3C(=O)NC4)n2)C1 [I-129, (R)-N-(1-(1-(2-(2-cyano-6-fluorophenyl)-5-oxo-6,7-dihydro-5H-pyrrolo[3,4-b]pyridin-4-yl)-1H-pyrazol-3-yl)piperidin-3-yl)acetamide]	100 to 2000	0.1 to 10	10 to 100	> 2000		
N#Cc1cccc(F)c1-c1cc(-n2ccc(N3CC[C@@H](O)[C@@H](N4CCOCC4)C3)n2)c2c(n1)CNC2=O [I-218, 3-fluoro-2-(4-(3-((3S,4R)-4-hydroxy-3-morpholinopiperidin-1-yl)-1H-pyrazol-1-yl)-5-oxo-6,7-dihydro-5H-pyrrolo[3,4-b]pyridin-2-yl)benzonitrile]	100 to 2000	0.1 to 10	10 to 100	100 to 2000		
CS(=O)(=O)N[C@H]1CCN(c2ccn(-c3cc(-c4c(F)cccc4C#N)nc4c3C(=O)NC4)n2)C1 [I-135, (S)-N-(1-(1-(2-(2-cyano-6-fluorophenyl)-5-oxo-6,7-dihydro-5H-pyrrolo[3,4-b]pyridin-4-yl)-1H-pyrazol-3-yl)pyrrolidin-3-yl)methanesulfonamide]	100 to 2000	0.1 to 10	0.1 to 10	> 2000		
N#Cc1cccc(F)c1-c1cc(-n2cc(F)c(N3CCC(O)C3)n2)c2c(n1)CNC2=O (centres unmarked) [I-185, 3-fluoro-2-(4-(4-fluoro-3-(3-hydroxypyrrolidin-1-yl)-1H-pyrazol-1-yl)-5-oxo-6,7-dihydro-5H-pyrrolo[3,4-b]pyridin-2-yl)benzonitrile]	100 to 2000	0.1 to 10	10 to 100	100 to 2000		
[2H]C1([2H])C[C@](O)(C([2H])([2H])[2H])C([2H])([2H])N1c1ccn(-c2cc(-c3c(F)cccc3C#N)nc3c2C(=O)NC3)n1 [I-184, (R)-3-fluoro-2-(4-(3-(3-hydroxy-3-(methyl-d3)pyrrolidin-1-yl-2,2,5,5-d4)-1H-pyrazol-1-yl)-5-oxo-6,7-dihydro-5H-pyrrolo[3,4-b]pyridin-2-yl)benzonitrile]	30 to 100	0.1 to 10	0.1 to 10	100 to 2000		
N#Cc1cccc(F)c1-c1cc(-c2ccn(C(=O)N3CCOCC3)n2)c2c(n1)CNC2=O [I-231, 3-fluoro-2-(4-(1-(morpholine-4-carbonyl)-1H-pyrazol-3-yl)-5-oxo-6,7-dihydro-5H-pyrrolo[3,4-b]pyridin-2-yl)benzonitrile]	> 2000	10 to 100	100 to 1000	> 2000		
CC(=O)Nc1ccn(-c2cc(-c3c(F)cccc3C#N)nc3c2C(=O)NC3)n1 [I-212, N-(1-(2-(2-cyano-6-fluorophenyl)-5-oxo-6,7-dihydro-5H-pyrrolo[3,4-b]pyridin-4-yl)-1H-pyrazol-3-yl)acetamide]	100 to 2000	0.1 to 10	100 to 1000	> 2000		
CO[C@H]1CN(c2ccn(-c3cc(-c4c(F)cccc4C#N)nc4c3C(=O)NC4)n2)CC[C@H]1OC [I-176, 2-(4-(3-((3S,4R)-3,4-dimethoxypiperidin-1-yl)-1H-pyrazol-1-yl)-5-oxo-6,7-dihydro-5H-pyrrolo[3,4-b]pyridin-2-yl)-3-fluorobenzonitrile]	100 to 2000	0.1 to 10	10 to 100	100 to 2000		
[2H]C1([2H])N(c2ccn(-c3cc(-c4c(F)cccc4C#N)nc4c3C(=O)NC4)n2)C([2H])([2H])C([2H])([2H])C([2H])(O)C1([2H])[2H] [I-203, 3-fluoro-2-(4-(3-(4-hydroxypiperidin-1-yl-2,2,3,3,4,5,5,6,6-d9)-1H-pyrazol-1-yl)-5-oxo-6,7-dihydro-5H-pyrrolo[3,4-b]pyridin-2-yl)benzonitrile]	30 to 100	0.1 to 10	10 to 100	100 to 2000		
CC1(C)[C@H](O)CCN1c1ccn(-c2cc(-c3c(F)cccc3C#N)nc3c2C(=O)NC3)n1 [I-204, (R)-3-fluoro-2-(4-(3-(3-hydroxy-2,2-dimethylpyrrolidin-1-yl)-1H-pyrazol-1-yl)-5-oxo-6,7-dihydro-5H-pyrrolo[3,4-b]pyridin-2-yl)benzonitrile]	30 to 100	0.1 to 10	10 to 100	> 2000		
N#Cc1cccc(F)c1-c1cc(-n2ccc(N3CC[C@H](C#N)[C@@H](O)C3)n2)c2c(n1)CNC2=O [I-215, (3R,4R)-1-(1-(2-(2-cyano-6-fluorophenyl)-5-oxo-6,7-dihydro-5H-pyrrolo[3,4-b]pyridin-4-yl)-1H-pyrazol-3-yl)-3-hydroxypiperidine-4-carbonitrile]		0.1 to 10	10 to 100	100 to 2000	100 to 2000	
N#Cc1cccc(F)c1-c1cc(-n2ccc(N3CC[C@H](C#N)[C@@H](O)C3)n2)c2c(n1)CNC2=O [I-216, (3R,4R)-1-(1-(2-(2-cyano-6-fluorophenyl)-5-oxo-6,7-dihydro-5H-pyrrolo[3,4-b]pyridin-4-yl)-1H-pyrazol-3-yl)-3-hydroxypiperidine-4-carbonitrile]		0.1 to 10	0.1 to 10		30 to 100	100 to 2000
N#Cc1cccc(F)c1-c1cc(-n2ccc(N3CC[C@](O)(C(=O)N4CCCC4)C3)n2)c2c(n1)CNC2=O [I-198, (R)-3-fluoro-2-(4-(3-(3-hydroxy-3-(pyrrolidine-1-carbonyl)-pyrrolidin-1-yl)-1H-pyrazol-1-yl)-5-oxo-6,7-dihydro-5H-pyrrolo[3,4-b]pyridin-2-yl)benzonitrile]	100 to 2000	0.1 to 10	10 to 100	> 2000		
N#Cc1cccc(F)c1-c1cc(-n2ccc(N3CCC(N4CCOCC4)CC3)n2)c2c(n1)CNC2=O [I-59, 3-fluoro-2-(4-(3-(4-morpholinopiperidin-1-yl)-1H-pyrazol-1-yl)-5-oxo-6,7-dihydro-5H-pyrrolo[3,4-b]pyridin-2-yl)benzonitrile]		0.1 to 10	0.1 to 10		100 to 2000	100 to 2000
[2H]C1([2H])C[C@H](O)C([2H])([2H])N1c1ccn(-c2cc(-c3c(F)cccc3C#N)nc3c2C(=O)NC3)n1 [I-142, (S)-3-fluoro-2-(4-(3-(3-hydroxypyrrolidin-1-yl-2,2,5,5-d4)-1H-pyrazol-1-yl)-5-oxo-6,7-dihydro-5H-pyrrolo[3,4-b]pyridin-2-yl)benzonitrile]	30 to 100	0.009 to 0.1	0.1 to 10	100 to 2000		
N#Cc1cccc(F)c1-c1cc(-n2ccc(N3CCCC(C#N)C3)n2)c2c(n1)CNC2=O (centres unmarked) [I-95, 1-(1-(2-(2-cyano-6-fluorophenyl)-5-oxo-6,7-dihydro-5H-pyrrolo[3,4-b]pyridin-4-yl)-1H-pyrazol-3-yl)piperidine-3-carbonitrile]	30 to 100	0.1 to 10	10 to 100	100 to 2000		
[2H]C([2H])([2H])C1(O)C([2H])([2H])N(c2ccn(-c3cc(-c4c(F)cccc4C#N)nc4c3C(=O)NC4)n2)C([2H])([2H])C1([2H])[2H] (centres unmarked) [I-196, 3-fluoro-2-(4-(3-(3-hydroxy-3-(methyl-d3)pyrrolidin-1-yl-2,2,4,4,5,5-d6)-1H-pyrazol-1-yl)-5-oxo-6,7-dihydro-5H-pyrrolo[3,4-b]pyridin-2-yl)benzonitrile]	30 to 100	0.1 to 10	0.1 to 10	100 to 2000		
CO[C@@H]1CN(c2ccn(-c3cc(-c4c(F)cccc4C#N)nc4c3C(=O)NC4)n2)CC[C@H]1O [I-195, 3-fluoro-2-(4-(3-((3R,4R)-4-hydroxy-3-methoxypiperidin-1-yl)-1H-pyrazol-1-yl)-5-oxo-6,7-dihydro-5H-pyrrolo[3,4-b]pyridin-2-yl)benzonitrile]	30 to 100	0.1 to 10	0.1 to 10	100 to 2000		

Source: patent US10781204B2, “TYK2 inhibitors and uses thereof” (Nimbus Lakshmi, Inc., priority 2015, dated 2020)
